Experimental data: patent US9365576B2, “Pyrrolopyrrolidinone compounds” (Novartis AG, priority 2012, dated 2016)
pIC50: −log10 of the molar value.

Each compound was assayed against human MDM2 protein (amino acids 2-188) (Homo sapiens (Human), UniProt Q00987) (assay: TR-FRET assay, p53-MDM2 Assay 2 (modified)). Conditions: TR-FRET; 0.1 nM MDM2, 0.1 nM Europium labeled streptavidin, Tecan genios Pro reader; read-out: IC50 p53-MDM2 Assay 2.
Format: binding
Outline: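 Biotinylated human MDM2 (aa 2–188, 1.25 nM) was preincubated 15 min at room temperature with 0.625 nM Eu-streptavidin, then 10 nM Cy5-p53 peptide (aa 18–26) added for 15 min. TR-FRET ratio 665/620 nm (excitation 340 nm) was read; IC50 came from curve fitting.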

human MDM2 protein (amino acids 2-188), sequence (Q00987 2-188): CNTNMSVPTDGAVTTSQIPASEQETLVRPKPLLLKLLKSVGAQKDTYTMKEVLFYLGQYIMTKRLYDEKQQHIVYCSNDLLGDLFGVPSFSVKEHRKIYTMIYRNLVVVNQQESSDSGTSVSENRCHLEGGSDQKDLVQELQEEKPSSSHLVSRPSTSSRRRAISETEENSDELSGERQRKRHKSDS

SMILES	pIC50
CNC(=O)Cc1cnc(OC)c(-c2cc3c(n2C(C)C)C(c2ccc(C#N)cc2)N(c2cccc(Cl)c2F)C3=O)c1 (centres unmarked) [Example 85, 2-{5-[5-(3-Chloro-2-fluoro-phenyl)-6-(4-cyano-phenyl)-1-isopropyl-4-oxo-1,4,5,6-tetrahydro-pyrrolo[3,4-b]pyrrol-2-yl]-6-methoxy-pyridin-3-yl}-N-methyl-acetamide]	8.50
COC[C@@H](C)n1c(-c2cnc(N)nc2OC)cc2c1C(c1ccc(C#N)cc1)N(c1ccc(F)c(Cl)c1)C2=O (some centres unmarked) [Example 223]	9.20
COc1ncc(-c2cc3c(n2C(C)C)C(c2ccc(Cl)cc2)N(c2cc(Cl)cn(C)c2=O)C3=O)c(OC)n1 (centres unmarked) [Example 70, 5-(5-Chloro-1-methyl-2-oxo-1,2-dihydro-pyridin-3-yl)-6-(4-chloro-phenyl)-2-(2,4-dimethoxy-pyrimidin-5-yl)-1-isopropyl-5,6-dihydro-1H-pyrrolo[3,4-b]pyrrol-4-one]	9.63
COc1ncc(-c2cc3c(n2C(C)C)C(c2ccc(Cl)cc2)N(c2cn(C)c(=O)cc2C)C3=O)c(OC)n1 (centres unmarked) [Example 111, 6-(4-Chloro-phenyl)-2-(2,4-dimethoxy-pyrimidin-5-yl)-5-(1,4-dimethyl-6-oxo-1,6-dihydro-pyridin-3-yl)-1-isopropyl-5,6-dihydro-1H-pyrrolo[3,4-b]pyrrol-4-one]	8.73
COc1ccc(CC(=O)O)cc1-c1cc2c(n1C(C)C)[C@H](c1ccc(Cl)cc1)N(c1cc(Cl)ccc1C)C2=O [Example 91, {3-[(S)-5-(5-Chloro-2-methyl-phenyl)-6-(4-chloro-phenyl)-1-isopropyl-4-oxo-1,4,5,6-tetrahydro-pyrrolo[3,4-b]pyrrol-2-yl]-4-methoxy-phenyl}-acetic acid]	10.21
CNc1ncc(-c2cc3c(n2C(C)C)C(c2ccc(Cl)cc2)N(c2cc(Cl)cn(C)c2=O)C3=O)c(OC)n1 (centres unmarked) [Example 72, 5-(5-Chloro-1-methyl-2-oxo-1,2-dihydro-pyridin-3-yl)-6-(4-chloro-phenyl)-1-isopropyl-2-(4-methoxy-2-methylamino-pyrimidin-5-yl)-5,6-dihydro-1H-pyrrolo[3,4-b]pyrrol-4-one]	9.53
COc1ccccc1-c1cc2c(n1C(C)C)C(c1ccc(Cl)cc1C)N(C1CCOCC1)C2=O (centres unmarked) [Example 104, 6-(4-Chloro-2-methyl-phenyl)-1-isopropyl-2-(2-methoxy-phenyl)-5-(tetrahydro-pyran-4-yl)-5,6-dihydro-1H-pyrrolo[3,4-b]pyrrol-4-one]	7.81
COc1ncc(-c2cc3c(n2C(C)C)C(c2ccc(C#N)cc2)N(c2cc(Cl)c(=O)n(C)c2)C3=O)c(OC)n1 (centres unmarked) [Example 153, 4-[5-(5-Chloro-1-methyl-6-oxo-1,6-dihydro-pyridin-3-yl)-2-(2,4-dimethoxy-pyrimidin-5-yl)-1-isopropyl-4-oxo-1,4,5,6-tetrahydro-pyrrolo[3,4-b]pyrrol-6-yl]-benzonitrile]	9.37
COc1ncc(-c2cc3c(n2C(C)C)C(c2ccc(Cl)cc2)N([C@H]2CC[C@H](O)CC2)C3=O)c(OC)n1 (stereo partly drawn) [Example 66, 6-(4-Chloro-phenyl)-2-(2,4-dimethoxy-pyrimidin-5-yl)-5-(trans-4-hydroxy-cyclohexyl)-1-isopropyl-5,6-dihydro-1H-pyrrolo[3,4-b]pyrrol-4-one]	8.86
CNc1ncc(-c2cc3c(n2C(C)C)C(c2ccc(C#N)cc2)N(c2cc(Cl)c(=O)n(C)c2)C3=O)c(OC)n1 (centres unmarked) [Example 133, 4-[5-(5-Chloro-1-methyl-6-oxo-1,6-dihydro-pyridin-3-yl)-1-isopropyl-2-(4-methoxy-2-methylamino-pyrimidin-5-yl)-4-oxo-1,4,5,6-tetrahydro-pyrrolo[3,4-b]pyrrol-6-yl]-benzonitrile]	9.49
COc1nc(N(C)C)ncc1-c1cc2c(n1C(C)C)C(c1ccc(Cl)cc1)N(c1cc(C)nn1C)C2=O (centres unmarked) [Example 177, 6-(4-Chloro-phenyl)-2-(2-dimethylamino-4-methoxy-pyrimidin-5-yl)-5-(2,5-dimethyl-2H-pyrazol-3-yl)-1-isopropyl-5,6-dihydro-1H-pyrrolo[3,4-b]pyrrol-4-one]	9.29

Results, then the compound that gave them:

pIC50	SMILES
7.11	COc1ncc(-c2cc3c(n2C(C)C)[C@@H](c2ccc(Cl)cc2)N(c2cc(Cl)c(=O)n(C)c2)C3=O)c(OC)n1 [Example 122, (R)-5-(5-Chloro-1-methyl-6-oxo-1,6-dihydro-pyridin-3-yl)-6-(4-chloro-phenyl)-2-(2,4-dimethoxy-pyrimidin-5-yl)-1-isopropyl-5,6-dihydro-1H-pyrrolo[3,4-b]pyrrol-4-one]
10.10	COc1ccc(C(=O)O)cc1-c1cc2c(n1C(C)C)[C@H](c1ccc(Cl)cc1)N(c1cc(Cl)ccc1C)C2=O [Example 89, 3-[(S)-5-(5-Chloro-2-methyl-phenyl)-6-(4-chloro-phenyl)-1-isopropyl-4-oxo-1,4,5,6-tetrahydro-pyrrolo[3,4-b]pyrrol-2-yl]-4-methoxy-benzoic acid]
9.34	COc1nc(N)ncc1-c1cc2c(n1C(C)C)C(c1ccc(Cl)cc1)N(c1cc(Cl)c(=O)n(C)c1)C2=O (centres unmarked) [Example 51, 2-(2-Amino-4-methoxy-pyrimidin-5-yl)-5-(5-chloro-1-methyl-6-oxo-1,6-dihydro-pyridin-3-yl)-6-(4-chloro-phenyl)-1-isopropyl-5,6-dihydro-1H-pyrrolo[3,4-b]pyrrol-4-one]
9.18	COc1nc(N(C)C)ncc1-c1cc2c(n1C(C)C)C(c1ccc(Cl)cn1)N(c1cccc(Cl)c1F)C2=O (centres unmarked) [Example 234, 5-(3-Chloro-2-fluorophenyl)-6-(5-chloropyridin-2-yl)-2-(2-(dimethylamino)-4-methoxypyrimidin-5-yl)-1-isopropyl-5,6-dihydropyrrolo[3,4-b]pyrrol-4(1H)-one]
9.32	COc1ncc(-c2cc3c(n2C(C)C)C(c2ccc(C#N)cc2)N(c2ccc(F)c(Cl)c2)C3=O)c(OC)n1 (centres unmarked) [Example 40, 4-[5-(3-Chloro-4-fluoro-phenyl)-2-(2,4-dimethoxy-pyrimidin-5-yl)-1-isopropyl-4-oxo-1,4,5,6-tetrahydro-pyrrolo[3,4-b]pyrrol-6-yl]-benzonitrile]
7.06	CCn1c(-c2cnc(OC)nc2OC)cc2c1C(c1ccc(Cl)cc1)N(c1cc(Cl)ccc1C)C2=O (centres unmarked) [Example 45, 5-(5-Chloro-2-methyl-phenyl)-6-(4-chloro-phenyl)-2-(2,4-dimethoxy-pyrimidin-5-yl)-1-ethyl-5,6-dihydro-1H-pyrrolo[3,4-b]pyrrol-4-one]
9.89	COc1ncc(-c2cc3c(n2C(C)C)C(c2ccc(Cl)c(F)c2)N(c2cc(Cl)c(=O)n(C)c2)C3=O)c(OC)n1 (centres unmarked) [Example 192, 6-(4-Chloro-3-fluoro-phenyl)-5-(5-chloro-1-methyl-6-oxo-1,6-dihydro-pyridin-3-yl)-2-(2,4-dimethoxy-pyrimidin-5-yl)-1-isopropyl-5,6-dihydro-1H-pyrrolo[3,4-b]pyrrol-4-one]
8.25	COc1cn(C)c(=O)cc1-c1cc2c(n1C(C)C)C(c1ccc(Cl)cc1)N(c1cn(C)nc1C)C2=O (centres unmarked) [Example 184, 6-(4-Chloro-phenyl)-5-(1,3-dimethyl-1H-pyrazol-4-yl)-1-isopropyl-2-(5-methoxy-1-methyl-2-oxo-1,2-dihydro-pyridin-4-yl)-5,6-dihydro-1H-pyrrolo[3,4-b]pyrrol-4-one]
8.41	COc1nc(N)ncc1-c1cc2c(n1C(C)C)C(c1ccc(Cl)cc1)N(c1c(F)c(C)nn1C)C2=O (centres unmarked) [Example 210, 2-(2-Amino-4-methoxy-pyrimidin-5-yl)-6-(4-chloro-phenyl)-5-(4-fluoro-2,5-dimethyl-2H-pyrazol-3-yl)-1-isopropyl-5,6-dihydro-1H-pyrrolo[3,4-b]pyrrol-4-one]
7.53	COc1ncc(-c2cc3c(n2C(C)C)[C@@H](c2ccc(Cl)cc2)N(c2cc(Cl)ccc2C)C3=O)c(OC)n1 [Example 24, (R)-5-(5-Chloro-2-methyl-phenyl)-6-(4-chloro-phenyl)-2-(2,4-dimethoxy-pyrimidin-5-yl)-1-isopropyl-5,6-dihydro-1H-pyrrolo[3,4-b]pyrrol-4-one]
9.88	COc1nc(N(C)C)ncc1-c1c(C(=O)O)c2c(n1C(C)C)C(c1ccc(Cl)cc1)N(c1cc(Cl)c(=O)n(C)c1)C2=O (centres unmarked) [Example 226, 5-(5-Chloro-1-methyl-6-oxo-1,6-dihydro-pyridin-3-yl)-6-(4-chloro-phenyl)-2-(2-dimethylamino-4-methoxy-pyrimidin-5-yl)-1-isopropyl-4-oxo-1,4,5,6-tetrahydro-pyrrolo[3,4-b]pyrrole-3-carboxylic acid]
9.24	CNc1ncc(-c2cc3c(n2C(C)C)[C@H](c2ccc(C#N)cc2)N(c2cc(Cl)cn(C)c2=O)C3=O)c(OC)n1 [Example 165, 4-[(S)-5-(5-Chloro-1-methyl-2-oxo-1,2-dihydro-pyridin-3-yl)-1-isopropyl-2-(4-methoxy-2-methylamino-pyrimidin-5-yl)-4-oxo-1,4,5,6-tetrahydro-pyrrolo[3,4-b]pyrrol-6-yl]-benzonitrile]
8.77	COc1ncc(-c2cc3c(n2C(C)C)C(c2ccc(Cl)cc2)N([C@H]2CC[C@H](OC)CC2)C3=O)c(OC)n1 (stereo partly drawn) [Example 143, 6-(4-Chloro-phenyl)-2-(2,4-dimethoxy-pyrimidin-5-yl)-1-isopropyl-5-(trans-4-methoxy-cyclohexyl)-5,6-dihydro-1H-pyrrolo[3,4-b]pyrrol-4-one]
10.15	COc1nc(N(C)C)ncc1-c1cc2c(n1C(C)C)[C@H](c1ccc(Cl)c(F)c1)N(c1cc(Cl)c[nH]c1=O)C2=O [Example 227, (S)-6-(4-Chloro-3-fluoro-phenyl)-5-(5-chloro-2-oxo-1,2-dihydro-pyridin-3-yl)-2-(2-dimethylamino-4-methoxy-pyrimidin-5-yl)-1-isopropyl-5,6-dihydro-1H-pyrrolo[3,4-b]pyrrol-4-one]
9.91	COc1ncc(-c2cc3c(n2C(C)C)C(c2ccc(Cl)cc2)N(c2cc(Cl)c(=O)n(C)c2F)C3=O)c(OC)n1 (centres unmarked) [Example 156, 5-(5-Chloro-2-fluoro-1-methyl-6-oxo-1,6-dihydro-pyridin-3-yl)-6-(4-chloro-phenyl)-2-(2,4-dimethoxy-pyrimidin-5-yl)-1-isopropyl-5,6-dihydro-1H-pyrrolo[3,4-b]pyrrol-4-one]
